Results published in PMC6694100, “The complex of ferric-enterobactin with its transporter from Pseudomonas aeruginosa suggests a two-site model” (Nature Communications, 2019).
Several values for one entry are separate records, joined by “and”; a condition that tells them apart may be missing. Equal entries are not always repeated. Entries after “also recorded” stand apart in the source; their conditions may differ. Where two headings read alike, the source gives them in different places.

Assays:
PfeA wild-type = target: T1, PfeA wild-type (Pseudomonas aeruginosa, UniProt Q05098); test: isothermal titration calorimetry, PfeA wild-type; assay type: binding; conditions: ITC reverse titration (PfeA into Fe^3+-enterobactin), estimate
T1 construct: His7 tag with TEV protease site (N, cleaved yes); made in house; host or cells: E. coli C43 (DE3)
T1 sequence (Q05098 26-746): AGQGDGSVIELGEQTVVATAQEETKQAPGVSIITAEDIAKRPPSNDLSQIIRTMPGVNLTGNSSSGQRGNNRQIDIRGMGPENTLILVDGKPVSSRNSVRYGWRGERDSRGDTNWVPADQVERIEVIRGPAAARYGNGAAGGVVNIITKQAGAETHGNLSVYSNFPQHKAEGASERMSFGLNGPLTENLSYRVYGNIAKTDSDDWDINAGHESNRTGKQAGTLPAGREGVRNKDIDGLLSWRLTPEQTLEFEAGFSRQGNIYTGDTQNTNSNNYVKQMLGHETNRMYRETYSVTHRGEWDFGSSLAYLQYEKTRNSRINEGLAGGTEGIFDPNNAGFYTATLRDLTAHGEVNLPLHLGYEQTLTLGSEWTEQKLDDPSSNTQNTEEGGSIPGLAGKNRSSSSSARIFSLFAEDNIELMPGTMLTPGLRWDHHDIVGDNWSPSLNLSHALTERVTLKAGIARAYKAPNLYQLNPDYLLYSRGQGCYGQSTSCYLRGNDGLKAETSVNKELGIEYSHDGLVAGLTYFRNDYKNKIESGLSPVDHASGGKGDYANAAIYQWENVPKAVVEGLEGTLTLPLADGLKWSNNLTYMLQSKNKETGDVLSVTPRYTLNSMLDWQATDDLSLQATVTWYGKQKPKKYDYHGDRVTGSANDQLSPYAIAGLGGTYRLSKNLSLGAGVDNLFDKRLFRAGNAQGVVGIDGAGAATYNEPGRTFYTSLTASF
Method: (§1) The sites have different affinities for the ligand, one with high affinity and highly favourable enthalpy and the second with lower affinity and unfavourable enthalpy. Although the biphasic nature of the isotherm was reproducible, the numerical values varied. For K1, the binding constant was 20 to 100 nM; for K2 […]. […] The weaker binding at the […] site is consistent with the higher B-factor of the Fe^3+-enterobactin molecule observed in the complex crystal structures.
(§2) Affinities of PfeA wild-type and mutants for Fe^3+-enterobactin were measured by isothermal titration calorimetry using a VP-ITC instrument (GE Healthcare) at 25 °C. Titrations were performed using 57 × 5 μl injections of Fe^3+-enterobactin (70–55 μM) into 10 μM protein. The heats of dilution measured from injection of the ligands into the buffer were subtracted, and titration curves were fitted using AFFINImeter software with a two-site binding model. Concentrations of Fe^3+-enterobactin solutions were verified with UV/vis spectrophotometry using a published molar extinction coefficient of ε495 = 5600 M^−1 cm^−1. […] Reverse titration has been also performed (PfeA into Fe^3+-enterobactin), but data suffer from high heats of dilution in the beginning of the blank titration of PfeA into the buffer giving estimates of K1 = 95 nM and K2 = 4.5 μM for the wild-type.

PfeA G324V mutant = target: T2, PfeA G324V mutant (Pseudomonas aeruginosa, UniProt Q05098, G349V); test: isothermal titration calorimetry, PfeA G324V; assay type: binding
T2 construct: His7 tag with TEV protease site (N, cleaved yes); made in house; host or cells: E. coli C43 (DE3)
T2 sequence (Q05098 26-746 G349V): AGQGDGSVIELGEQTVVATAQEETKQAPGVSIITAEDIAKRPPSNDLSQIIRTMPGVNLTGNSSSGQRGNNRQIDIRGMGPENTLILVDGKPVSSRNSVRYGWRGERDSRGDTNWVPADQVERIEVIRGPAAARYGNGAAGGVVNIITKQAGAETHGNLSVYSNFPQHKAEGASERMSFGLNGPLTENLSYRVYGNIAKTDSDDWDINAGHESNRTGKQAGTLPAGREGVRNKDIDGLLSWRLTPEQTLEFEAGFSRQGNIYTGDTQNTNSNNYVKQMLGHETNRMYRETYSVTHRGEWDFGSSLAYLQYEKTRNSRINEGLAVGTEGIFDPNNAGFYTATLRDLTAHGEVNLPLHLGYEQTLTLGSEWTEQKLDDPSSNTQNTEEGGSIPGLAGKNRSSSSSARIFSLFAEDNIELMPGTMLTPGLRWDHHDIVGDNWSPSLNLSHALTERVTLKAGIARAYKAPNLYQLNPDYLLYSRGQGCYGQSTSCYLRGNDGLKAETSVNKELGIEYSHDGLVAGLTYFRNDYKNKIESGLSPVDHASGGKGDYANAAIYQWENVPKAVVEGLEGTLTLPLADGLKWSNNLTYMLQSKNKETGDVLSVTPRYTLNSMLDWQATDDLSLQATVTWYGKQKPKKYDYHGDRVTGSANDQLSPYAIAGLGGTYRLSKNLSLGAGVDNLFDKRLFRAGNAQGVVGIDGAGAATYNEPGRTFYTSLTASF
Method: as §1, §2

[1] = target: T3, PfeA R480A-Q482A double mutant (Pseudomonas aeruginosa, UniProt Q05098, Q507A/R505A); test: isothermal titration calorimetry, PfeA R480A-Q482A; assay type: binding
T3 construct: His7 tag with TEV protease site (N, cleaved yes); made in house; host or cells: E. coli C43 (DE3)
T3 sequence (Q05098 26-746 R505A/Q507A): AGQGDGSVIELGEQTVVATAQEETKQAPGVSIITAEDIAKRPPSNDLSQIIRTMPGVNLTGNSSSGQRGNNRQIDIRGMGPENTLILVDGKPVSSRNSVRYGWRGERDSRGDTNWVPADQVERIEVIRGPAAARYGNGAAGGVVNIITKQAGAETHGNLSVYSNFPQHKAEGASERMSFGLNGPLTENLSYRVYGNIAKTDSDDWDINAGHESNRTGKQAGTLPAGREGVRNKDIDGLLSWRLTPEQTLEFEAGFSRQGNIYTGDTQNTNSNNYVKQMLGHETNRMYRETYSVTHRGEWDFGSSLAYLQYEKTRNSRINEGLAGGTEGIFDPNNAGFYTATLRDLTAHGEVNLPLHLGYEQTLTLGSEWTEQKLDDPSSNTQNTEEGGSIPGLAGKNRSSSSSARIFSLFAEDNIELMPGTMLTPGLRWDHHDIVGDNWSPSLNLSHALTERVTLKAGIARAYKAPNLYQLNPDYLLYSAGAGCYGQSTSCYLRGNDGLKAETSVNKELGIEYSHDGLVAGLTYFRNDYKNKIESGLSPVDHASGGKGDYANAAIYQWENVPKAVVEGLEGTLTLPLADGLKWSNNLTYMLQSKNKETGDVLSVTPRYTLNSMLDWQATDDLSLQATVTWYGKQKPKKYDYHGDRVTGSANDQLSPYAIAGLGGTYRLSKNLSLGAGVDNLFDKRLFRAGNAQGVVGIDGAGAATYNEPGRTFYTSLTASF
Method: as §1, §2

PfeA Q482A mutant = target: T4, PfeA Q482A mutant (Pseudomonas aeruginosa, UniProt Q05098, Q507A); test: isothermal titration calorimetry, PfeA Q482A; assay type: binding
T4 construct: His7 tag with TEV protease site (N, cleaved yes); made in house; host or cells: E. coli C43 (DE3)
T4 sequence (Q05098 26-746 Q507A): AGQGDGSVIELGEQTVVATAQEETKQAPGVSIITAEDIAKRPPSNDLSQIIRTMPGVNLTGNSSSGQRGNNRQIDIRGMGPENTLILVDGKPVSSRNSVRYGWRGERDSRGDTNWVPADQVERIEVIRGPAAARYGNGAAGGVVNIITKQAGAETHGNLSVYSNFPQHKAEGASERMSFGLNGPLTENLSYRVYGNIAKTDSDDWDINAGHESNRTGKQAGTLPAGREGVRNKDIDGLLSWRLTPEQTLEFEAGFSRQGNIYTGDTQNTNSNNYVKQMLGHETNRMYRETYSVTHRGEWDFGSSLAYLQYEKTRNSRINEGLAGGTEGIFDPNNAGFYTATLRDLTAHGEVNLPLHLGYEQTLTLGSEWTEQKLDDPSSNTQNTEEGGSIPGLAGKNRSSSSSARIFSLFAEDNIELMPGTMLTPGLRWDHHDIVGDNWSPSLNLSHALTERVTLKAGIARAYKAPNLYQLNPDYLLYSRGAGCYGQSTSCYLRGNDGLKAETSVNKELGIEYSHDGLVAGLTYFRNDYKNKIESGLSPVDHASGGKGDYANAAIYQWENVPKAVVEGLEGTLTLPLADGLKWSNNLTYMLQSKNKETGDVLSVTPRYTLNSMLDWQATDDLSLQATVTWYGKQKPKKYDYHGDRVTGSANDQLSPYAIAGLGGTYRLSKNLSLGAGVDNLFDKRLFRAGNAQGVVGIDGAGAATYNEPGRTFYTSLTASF
Method: as §1, §2

PfeA R480A mutant = target: T5, PfeA R480A mutant (Pseudomonas aeruginosa, UniProt Q05098, R505A); test: isothermal titration calorimetry, PfeA R480A; assay type: binding
T5 construct: His7 tag with TEV protease site (N, cleaved yes); made in house; host or cells: E. coli C43 (DE3)
T5 sequence (Q05098 26-746 R505A): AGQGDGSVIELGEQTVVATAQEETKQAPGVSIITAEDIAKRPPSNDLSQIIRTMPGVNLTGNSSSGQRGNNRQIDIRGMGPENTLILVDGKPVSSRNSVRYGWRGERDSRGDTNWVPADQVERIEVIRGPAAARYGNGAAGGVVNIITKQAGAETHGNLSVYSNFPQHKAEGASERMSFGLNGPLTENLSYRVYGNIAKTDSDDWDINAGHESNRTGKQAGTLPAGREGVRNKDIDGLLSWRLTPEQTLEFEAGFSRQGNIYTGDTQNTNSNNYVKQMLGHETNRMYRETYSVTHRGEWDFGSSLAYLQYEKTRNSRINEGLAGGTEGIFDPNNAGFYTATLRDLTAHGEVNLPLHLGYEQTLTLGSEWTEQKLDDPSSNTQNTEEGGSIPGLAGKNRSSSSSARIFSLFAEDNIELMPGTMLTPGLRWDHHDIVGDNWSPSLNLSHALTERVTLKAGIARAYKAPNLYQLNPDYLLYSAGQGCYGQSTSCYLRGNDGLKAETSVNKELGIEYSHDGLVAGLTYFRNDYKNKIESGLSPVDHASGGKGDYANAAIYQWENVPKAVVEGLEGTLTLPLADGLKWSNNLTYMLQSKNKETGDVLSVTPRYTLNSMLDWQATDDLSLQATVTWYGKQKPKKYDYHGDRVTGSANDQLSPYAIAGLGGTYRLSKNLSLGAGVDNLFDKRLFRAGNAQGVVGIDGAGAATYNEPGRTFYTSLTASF
Method: as §1, §2

[2] = target: T3, PfeA R480A-Q482A double mutant; test: coelution on S200 size-exclusion column, PfeA R480A-Q482A; assay type: binding
Method: Proteins were incubated with the Fe^3+-siderophore before being loaded on a S200 size-exclusion column.

wild-type PAO1 strain = test: 55Fe-enterobactin binding and uptake assay, PAO1; assay type: cell-based, Pseudomonas aeruginosa; conditions: replicates, Figure 6b-c, listed as 55Fe-enterobactin
Method: (§3) Fig. 6 Effects of PfeA mutation in vivo. a Analysis of changes in the transcription of pfeA gene. PAO1 strain, its corresponding deletion mutant ∆pfeA and deletion mutants carrying the expression plasmid of PfeA wild-type (∆pfeA(pMMBpfeA) or the R480A-Q482A mutant (∆pfeA(pMMBpfeAR480AQ482A)) were grown in CAA medium supplemented with 10 µM enterobactin. The data were normalised relative to the reference gene uvrD, and are representative of three independent experiments performed in triplicate (n = 3). The results are given as a ratio between the values obtained for ∆pfeA, ∆pfeA(pMMBpfeA) and ∆pfeA(pMMBpfeAR480AQ482A) over those obtained for the PAO1 strain. b ^55Fe-enterobactin binding at the bacterial surface. Cells were grown as in panel a, and were incubated for 15 min with 200 µM CCCP before initiation of transport assays by the addition of 500 nM ^55Fe-enterobactin. After 30 min incubation, the radioactivity accumulated in the bacteria was counted. The results are expressed as pmol of ^55Fe-enterobactin bound per ml of cells at an OD600 of 1. The experiments have been repeated three times. c ^55Fe-enterobactin binding and uptake. Cells were grown as in panel a, and were incubated with or without 200 µM CCCP before initiation of transport assays by the addition of 500 nM ^55Fe-enterobactin. After 30 min incubations, the radioactivity accumulated in the bacteria was counted. The results are expressed as pmol of ^55Fe-enterobactin bound and transported per ml of cells at an OD600 of 1. The experiments have been repeated three times
The complex was prepared at ^55Fe concentrations of 50 μM, with a siderophore:iron (mol:mol) ratio of 20:1. P. aeruginosa strains were first grown overnight at 30 °C in LB broth, and were then washed, resuspended and cultured overnight at 30 °C in iron-deficient CAA medium (casamino acid medium, composition: 5 g.l^−1 low-iron CAA (Difco), 1.46 g.l^−1 K2HPO4 3H2O, 0.25 g.l^−1 MgSO4 7H2O) and in the presence of 10 µM enterobactin to induce the expression of PfeA. CAA is a highly iron-restricted medium with iron concentrations of 20 nM[59]. Afterwards bacteria were washed with 50 mM Tris-HCl pH 8.0, and diluted to an OD600 of 1. Cells solutions were divided in two, one batch being treated with 200 μM CCCP. […] After 30 min of incubations, cells were centrifuged, and the radioactivity associated to the bacteria was monitored in the cell pellets. For the cells treated with CCCP, the radioactivity in the cell pellets corresponds to the binding of ^55Fe-enterobactin to P. aeruginosa cell surface, since no uptake occurs. In the absence of CCCP, the radioactivity associated to the cells corresponds to ^55Fe-enterobactin binding to the cell surface and the uptake into the bacteria.

[3] = test system: ∆pfeA cells with no plasmid; test: 55Fe-enterobactin binding and uptake assay, ∆pfeA; assay type: cell-based, Pseudomonas aeruginosa; conditions: for 55Fe count, Comptage / 55Fe-enterobactin bound/taken up: replicates, Figure 6b-c, listed as 55Fe-enterobactin
Method: as §3
(§4) The complex was prepared at ^55Fe concentrations of 50 μM, with a siderophore:iron (mol:mol) ratio of 20:1. P. aeruginosa strains were first grown overnight at 30 °C in LB broth, and were then washed, resuspended and cultured overnight at 30 °C in iron-deficient CAA medium (casamino acid medium, composition: 5 g.l^−1 low-iron CAA (Difco), 1.46 g.l^−1 K2HPO4 3H2O, 0.25 g.l^−1 MgSO4 7H2O) and in the presence of 10 µM enterobactin to induce the expression of PfeA. CAA is a highly iron-restricted medium with iron concentrations of 20 nM[59]. Afterwards bacteria were washed with 50 mM Tris-HCl pH 8.0, and diluted to an OD600 of 1. Cells solutions were divided in two, one batch being treated with 200 μM CCCP. This compound collapses the proton-motive force across the bacterial cell membranes, inhibiting TonB-dependent iron uptake. Binding and transport assays were initiated by adding 500 nM ^55Fe-enterobactin to the bacterial solutions treated or not with CCCP. After 30 min of incubations, cells were centrifuged, and the radioactivity associated to the bacteria was monitored in the cell pellets. For the cells treated with CCCP, the radioactivity in the cell pellets corresponds to the binding of ^55Fe-enterobactin to P. aeruginosa cell surface, since no uptake occurs. In the absence of CCCP, the radioactivity associated to the cells corresponds to ^55Fe-enterobactin binding to the cell surface and the uptake into the bacteria.

[4] = test system: ∆pfeA(pMMBpfeAR480AQ482A) cells (double-mutant PfeA); test: 55Fe-enterobactin binding and uptake assay, ∆pfeA(pMMBpfeAR480AQ482A); assay type: cell-based, Pseudomonas aeruginosa; conditions: for 55Fe count, Comptage / 55Fe-enterobactin bound/taken up: replicates, Figure 6b-c, listed as 55Fe-enterobactin
Method: as §3, §4

[5] = ∆pfeA (pMMBpfeAR480AQ482A) + CCCP
[6] = ∆pfeA (pMMBpfeAR480AQ482A), no CCCP

O=C(N[C@H]1COC(=O)[C@@H](NC(=O)c2cccc([O-])c2[O-])COC(=O)[C@@H](NC(=O)c2cccc([O-])c2[O-])COC1=O)c1cccc([O-])c1[O-].[Fe+3] [Fe^3+-enterobactin]
Kd (PfeA wild-type; read-out: K1, reverse titration): 95 nM | Kd (PfeA wild-type; read-out: K2, reverse titration): 4500 nM | binding by ITC (PfeA G324V mutant): no binding was detected; also recorded: did not show any detectable binding | binding by ITC [1]: no binding was detected; also recorded: did not show any detectable binding | binding by ITC (PfeA Q482A mutant): biphasic isotherms, but with much reduced heat output and smaller K1 values; also recorded: weakened (but detectable) binding | binding by ITC (PfeA R480A mutant): typical low affinity-binding curve profile; also recorded: weakened (but detectable) binding | coelution with protein on size-exclusion column [2]: does not coelute | 55Fe count, Comptage (wild-type PAO1 strain; PAO1 + CCCP): 1670 dpm and 1638 dpm and 1498 dpm | 55Fe-enterobactin bound/taken up (wild-type PAO1 strain; PAO1 + CCCP): 21.426 pmol/ml/DO600 and 21.0154 pmol/ml/DO600 and 19.2192 pmol/ml/DO600 | 55Fe count, Comptage (wild-type PAO1 strain; PAO1, no CCCP): 14331 dpm and 14149 dpm and 16177 dpm | 55Fe-enterobactin bound/taken up (wild-type PAO1 strain; PAO1, no CCCP): 183.866 pmol/ml/DO600 and 181.531 pmol/ml/DO600 and 207.55 pmol/ml/DO600 | ^55Fe-siderophore binding at the bacterial surface ([3]; CCCP treated cells (200 µM), 500 nM ^55Fe-enterobactin, 30 min): same low level of binding as wild-type PAO1 | 55Fe count, Comptage ([3]; ∆pfeA + CCCP): 1560 dpm and 1268 dpm and 1340 dpm | 55Fe-enterobactin bound/taken up ([3]; ∆pfeA + CCCP): 20.0147 pmol/ml/DO600 and 16.2683 pmol/ml/DO600 and 17.1921 pmol/ml/DO600 | 55Fe count, Comptage ([3]; ∆pfeA, no CCCP): 3228 dpm and 4151 dpm and 2977 dpm | 55Fe-enterobactin bound/taken up ([3]; ∆pfeA, no CCCP): 41.415 pmol/ml/DO600 and 53.257 pmol/ml/DO600 and 38.1947 pmol/ml/DO600 | ^55Fe-enterobactin binding and uptake ([4]; cells not treated with CCCP, 500 nM ^55Fe-enterobactin, 30 min): inactive | 55Fe count, Comptage [4, 5]: 1611 dpm and 1344 dpm and 1594 dpm | 55Fe-enterobactin bound/taken up [4, 5]: 20.669 pmol/ml/DO600 and 17.2434 pmol/ml/DO600 and 20.4509 pmol/ml/DO600 | 55Fe count, Comptage [4, 6]: 2941 dpm and 2752 dpm and 2956 dpm | 55Fe-enterobactin bound/taken up [4, 6]: 37.7328 pmol/ml/DO600 and 35.3079 pmol/ml/DO600 and 37.9252 pmol/ml/DO600
